The target in the assay is T1, mutant G12C K-RAS (Homo sapiens, UniProt P01116, G12C).
T1 construct: made in house; host or cells: E. coli BL21
The assay is described as follows: covalent adduct formation (CAF) with mutant G12C K-RAS. Conditions: for % CAF @ 10 uM, 1 h: Table 6. Also noted: covalent adduct formation (CAF): unit not given here. Type of assay: binding. As for the experimental part: Embodiments disclosed herein are further illustrated by the following examples in Tables 1-4 and the Examples hereinbelow. The Tables indicate the compound number, structure, the observed mass spectral molecular weight peak, and covalent adduct formation (CAF) with a mutant G12C K-RAS after 60 minutes at a concentration of 10 micromolar.

Here are results for 9 molecules from patent US20230203063A1, “TRICYCLIC PYRIDONES AND PYRIMIDONES” (Erasca, Inc., priority 2019, published 2023).

Consider `C=CC(=O)N1CCN(c2nc(=O)n3c4c(c(-c5c(O)cccc5F)c(Cl)cc24)OCC3)CC1` [Example 1, 7-(4-acryloylpiperazin-1-yl)-9-chloro-10-(2-fluoro-6-hydroxyphenyl)-2H-[1,4]oxazino[2,3,4-ij]quinazolin-5(3H)-one], for which the “% CAF(60 min)” value (Table 1, 10 micromolar, after 60 minutes) is 89%. Regarding `C=CC(=O)N1C[C@H](C)N(c2nc(=O)n3c4c(c(-c5c(O)cccc5F)c(Cl)cc24)OC[C@@H]3CN2CCC(F)(F)C2)C[C@H]1C` [Example 220, (3S,10R)-7-((2S,5R)-4-acryloyl-2,5-dimethylpiperazin-1-yl)-9-chloro-3-((3,3-difluoropyrrolidin-1-yl)methyl)-10-(2-fluoro-6-hydroxyphenyl)-2,3-dihydro-5H-[1,4]oxazino[2,3,4-ij]quinazolin-5-one], the “% CAF @ 10 uM, 1 h” value is 0%.

As for `C=CC(=O)N1C[C@H](C)N(c2nc(=O)n3c4c(c(-c5c(F)ccc6cc[nH]c(=O)c56)ccc24)OCC3)C[C@H]1C` [Example 224, 7-((2S,5R)-4-acryloyl-2,5-dimethylpiperazin-1-yl)-10-(7-fluoro-1-oxo-1,2-dihydroisoquinolin-8-yl)-2,3-dihydro-5H-[1,4]oxazino[2,3,4-ij]quinazolin-5-one], the “% CAF @ 10 uM, 1 h” value amounted to 0%.

`C=CC(=O)N1CCN(c2nc(=O)n3c4c(c(-c5c(F)cc(F)cc5F)c(Cl)cc24)SC[C@H]3CCCN2C[C@@H]3C[C@H]2CO3)[C@@H](C)C1` [Example 339, (R)-3-(3-((1S,4S)-2-oxa-5-azabicyclo-[2.2.1]heptan-5-yl)-propyl)-7-((S)-4-acryloyl-2-methyl-piperazin-1-yl)-9-chloro-10-(2,4,6-trifluorophenyl)-2H-[1,4]thiazino[2,3,4-ij]-quinazolin-5(3H)-one]: under “Table 7, 10 micromolar, after 60 minutes”, the “covalent adduct formation (CAF)” value was 96.6.

On to `C=CC(=O)N1C[C@H](C)N(c2nc(=O)n3c4c(c(-c5c(F)ccc6[nH]cnc56)ccc24)OCC3)C[C@H]1C` [Example 201, 7-((2S,5R)-4-acryloyl-2,5-dimethylpiperazin-1-yl)-10-(5-fluoro-1H-benzo[d]imidazol-4-yl)-2,3-dihydro-5H-[1,4]oxazino[2,3,4-ij]quinazolin-5-one], for which the “% CAF @ 10 uM, 1 h” value stood at 0%. The same measure, in the same setting: as for `C=CC(=O)N1C[C@H](C)N(c2nc(=O)n3c4c(c(-c5c(O)cccc5F)c(Cl)cc24)OC[C@H]3Cn2cccn2)C[C@H]1C` (atropisomer, axis not shown) [Example 245, (3R,10R)-3-((1H-pyrazol-1-yl)methyl)-7-((2S,5R)-4-acryloyl-2,5-dimethylpiperazin-1-yl)-9-chloro-10-(2-fluoro-6-hydroxyphen-yl)-2H-[1,4]oxazino-[2,3,4-ij]quinazolin-5(3H)-one], the figure is 0%.

Turning to `C=CC(=O)N1CCN(c2nc(=O)n3c4c(c(-c5c(O)cccc5F)c(Cl)cc24)OC[C@H]3CO)[C@@H](C)C1` [Example 23, (3R,10R)-7-((S)-4-acryloyl-2-methylpiperazin-1-yl)-9-chloro-10-(2-fluoro-6-hydroxyphenyl)-3-(hydroxymethyl)-2H-[1,4]oxazino[2,3,4-ij]quinazolin-5(3H)-one], the “% CAF(60 min)” value (Table 2, 10 micromolar, after 60 minutes) is 0%. Take `C=CC(=O)N1C[C@H](C)N(c2c(C#N)c(=O)n3c4c(c(-c5ccc(F)cc5F)ccc24)OC[C@H]3CN(C)C)C[C@H]1C` [Example 52, (R)-7-((2S,5R)-4-acryloyl-2,5-dimethylpiperazin-1-yl)-10-(2,4-difluorophenyl)-3-((dimethylamino)methyl)-5-oxo-3,5-dihydro-2H-[1,4]oxazino[2,3,4-ij]quinoline-6-carbonitrile]: the “% CAF(60 min)” value (Table 4, 10 micromolar, after 60 minutes) worked out at 0%.

Consider `C=CC(=O)N1C[C@H](C)N(c2nc(=O)n3c4c(c(-c5c(O)cccc5F)c(Cl)cc24)OC[C@H]3CN2CCN(C)CC2)C[C@H]1C` (atropisomer, axis not shown) [Example 300, (3R,10R)-7-((2S,5R)-4-acryloyl-2,5-dimethylpiperazin-1-yl)-9-chloro-10-(2-fluoro-6-hydroxyphen-yl)-3-((4-methylpiper-azin-1-yl)methyl)-2,3-dihydro-5H-[1,4]-oxazino[2,3,4-ij]-quinazolin-5-one], for which the “% CAF @ 10 uM, 1 h” value came to 0%.
